For this test, the target named is T1, human NK1 receptor (Homo sapiens, UniProt P25103).
T1 construct: expressed in transfected cells; host or cells: CHO cells infected with the Semliki virus expression system; membrane suspension used
The test is described as follows: [3H]substance P binding at human NK1 receptors in CHO cells. To be noted: affinity to the NK-1 receptor; [3H]substance P 0.6 nM displacement, CHO cell membranes, 60 min at room temperature. As for the experimental part:
The affinity of test compounds for the NK1 receptor was evaluated at human NK1 receptors in CHO cells infected with the human NK1 receptor (using the Semliki virus expression system) and radiolabelled with [^3H]substance P (final concentration 0.6 nM). Binding assays were performed in HEPES buffer (50 mM, pH 7.4) containing BSA (0.04%) leupeptin (8 μg/ml), MnCl2 (3 mM) and phosphoramidon (2 μM). Binding assays consisted of 250 μl of membrane suspension (1.25×10^5 cells/assay tube), […] of buffer of displacing agent and 125 μl of [^3H]substance P. Displacement curves were determined with at least seven concentrations of the compound. The assay tubes were incubated for 60 min at room temperature after which time the tube contents were rapidly filtered under vacuum through GF/C filters presoaked for 60 min with PEI (0.3%) with 2×2 ml washes of HEPES buffer (50 mM, pH 7.4). The radioactivity retained on the filters was measured by scintillation counting. All assays were performed in triplicate in at least 2 separate experiments.

Counter-ions that a name gives are not always drawn.

T1 sequence (P25103 whole entry): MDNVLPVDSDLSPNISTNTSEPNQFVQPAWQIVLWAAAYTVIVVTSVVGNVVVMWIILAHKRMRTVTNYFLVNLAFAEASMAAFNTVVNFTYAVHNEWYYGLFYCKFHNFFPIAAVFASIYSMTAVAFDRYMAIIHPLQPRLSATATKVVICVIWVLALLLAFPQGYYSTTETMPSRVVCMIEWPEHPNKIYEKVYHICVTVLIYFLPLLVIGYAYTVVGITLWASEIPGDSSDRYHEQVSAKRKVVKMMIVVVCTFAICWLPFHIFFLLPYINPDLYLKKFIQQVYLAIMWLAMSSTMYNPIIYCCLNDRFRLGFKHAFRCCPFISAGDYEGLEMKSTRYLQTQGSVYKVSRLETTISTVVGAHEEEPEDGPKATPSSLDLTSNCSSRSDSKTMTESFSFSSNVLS

In the case of `O=C(c1cc(C(F)(F)F)cc(C(F)(F)F)c1)N1CCC2(CC1)OC(=O)N(C1CCOCC1)CC2c1ccccc1` (racemic) [Example 13, (5RS)-9-(3,5-bis-trifluoromethyl-benzoyl)-5-phenyl-3-(tetrahydro-pyran-4-yl)-1-oxa-3,9-diaza-spiro[5.5]undecan-2-one], the Ki – broadly, the dissociation constant of the complex between target and ligand, obtained from inhibition or displacement – is 19.1 nM. For `CN(C)C(=O)CN1CC(c2ccccc2)C2(CCN(C(=O)c3cc(C(F)(F)F)cc(C(F)(F)F)c3)CC2)OC1=O` (racemic) [Example 14, (5RS)-2-[9-(3,5-bis-trifluoromethyl-benzoyl)-2-oxo-5-phenyl-1-oxa-3,9-diaza-spiro[5.5]undec-3-yl]-N,N-dimethyl-acetamide], the affinity corresponds to a Ki of 6.61 nM. Compared with the last compound, the Ki is about 2.9-fold lower.

Compound `O=C1OC2(CCN(C(=O)c3cc(C(F)(F)F)cc(C(F)(F)F)c3)CC2)C(c2ccc(F)c(F)c2)CN1CC(F)F` (racemic) [Example 15, (5RS)-9-(3,5-bis-trifluoromethyl-benzoyl)-3-(2,2-difluoro-ethyl)-5-(3,4-difluoro-phenyl)-1-oxa-3,9-diaza-spiro[5.5]undecan-2-one] gave a Ki of 11.5 nM.

As to `O=C1OC2(CCN(C(=O)c3cc(C(F)(F)F)cc(C(F)(F)F)c3)CC2)C(c2ccccc2)CN1Cc1cccnc1` (racemic) [Example 16, (5RS)-9-(3,5-bis-trifluoromethyl-benzoyl)-5-phenyl-3-pyridin-3-ylmethyl-1-oxa-3,9-diaza-spiro[5.5]undecan-2-one], affinity was put at a Ki of 6.17 nM. Compared with the last compound, the Ki is about 1.9-fold lower. For `CN1CC(c2ccccc2)C2(CCN(C(=O)c3cc(C(F)(F)F)cc(C(F)(F)F)c3)CC2)OC1=O` (racemic) [Example 18, (5RS)-9-(3,5-bis-trifluoromethyl-benzoyl)-3-methyl-5-phenyl-1-oxa-3,9-diaza-spiro[5.5]undecan-2-one] the value was 15.5 nM; for `COCCN1CC(c2ccc(F)c(F)c2)C2(CCN(C(=O)c3cc(C(F)(F)F)cc(C(F)(F)F)c3)CC2)OC1=O` (racemic) [Example 19, (5RS)-9-(3,5-bis-trifluoromethyl-benzoyl)-5-(3,4-difluoro-phenyl)-3-(2-methoxy-ethyl)-1-oxa-3,9-diaza-spiro[5.5]undecan-2-one], 19.1 nM. For `CN1CC(c2ccc(F)c(F)c2)C2(CCN(C(=O)c3cc(C(F)(F)F)cc(C(F)(F)F)c3)CC2)OC1=O` (racemic) [Example 20, (5RS)-9-(3,5-bis-trifluoromethyl-benzoyl)-5-(3,4-difluoro-phenyl)-3-methyl-1-oxa-3,9-diaza-spiro[5.5]undecan-2-one] the value was 30.9 nM; for `O=C1OC2(CCN(C(=O)c3cc(C(F)(F)F)cc(C(F)(F)F)c3)CC2)C(c2ccccc2)CN1CCCO` (racemic) [Example 21, (5RS)-9-(3,5-bis-trifluoromethyl-benzoyl)-3-(3-hydroxy-propyl)-5-phenyl-1-oxa-3,9-diaza-spiro[5.5]undecan-2-one], 6.76 nM.

`O=C1OC2(CCN(C(=O)c3cc(C(F)(F)F)cc(C(F)(F)F)c3)CC2)C(c2ccccc2)CN1CCO` (racemic) [Example 22, (5RS)-9-(3,5-bis-trifluoromethyl-benzoyl)-3-(2-hydroxy-ethyl)-5-phenyl-1-oxa-3,9-diaza-spiro[5.5]undecan-2-one] gave a Ki of 15.8 nM.

`O=C1OC2(CCN(C(=O)c3cc(C(F)(F)F)cc(C(F)(F)F)c3)CC2)C(c2ccccc2)CN1CCCN1CCCC1` (racemic) [Example 23, (5RS)-9-(3,5-bis-trifluoromethyl-benzoyl)-5-phenyl-3-(3-pyrrolidin-1-yl-propyl)-1-oxa-3,9-diaza-spiro[5.5]undecan-2-one]: affinity was put at a Ki of 3.39 nM. Compared with the last compound, the Ki is about 4.7-fold lower.

`O=C1OC2(CCN(C(=O)c3cc(C(F)(F)F)cc(C(F)(F)F)c3)CC2)C(c2ccccc2)CN1CCCN1CCOCC1` (racemic) [Example 24, (5RS)-9-(3,5-bis-trifluoromethyl-benzoyl)-3-(3-morpholin-4-yl-propyl)-5-phenyl-1-oxa-3,9-diaza-spiro[5.5]undecan-2-one] had a Ki of 3.47 nM. For `O=C1OC2(CCN(C(=O)c3cc(C(F)(F)F)cc(C(F)(F)F)c3)CC2)C(c2ccccc2)CN1CCCN1CCC(O)C1` (racemic) [Example 26, (5RS)-9-(3,5-bis-trifluoromethyl-benzoyl)-3-[3-(3-hydroxy-pyrrolidin-1-yl)-propyl]-5-phenyl-1-oxa-3,9-diaza-spiro[5.5]undecan-2-one] the value was 4.07 nM. For `CN(C)CCN1CC(c2ccccc2)C2(CCN(C(=O)c3cc(C(F)(F)F)cc(C(F)(F)F)c3)CC2)OC1=O` (racemic) [Example 28, (5RS)-9-(3,5-bis-trifluoromethyl-benzoyl)-3-(2-dimethylamino-ethyl)-5-phenyl-1-oxa-3,9-diaza-spiro[5.5]undecan-2-one hydrochloride] the value was 7.41 nM; for `CN1CCN(CCCN2CC(c3ccccc3)C3(CCN(C(=O)c4cc(C(F)(F)F)cc(C(F)(F)F)c4)CC3)OC2=O)CC1` (racemic) [Example 29, (5RS)-9-(3,5-bis-trifluoromethyl-benzoyl)-3-[3-(4-methyl-piperazin-1-yl)-propyl]-5-phenyl-1-oxa-3,9-diaza-spiro[5.5]undecan-2-one], 10.5 nM. The result for `O=C1OC2(CCN(C(=O)c3cc(C(F)(F)F)cc(C(F)(F)F)c3)CC2)C(c2ccccc2)CN1CCN1CCCC1` (racemic) [Example 30, (5RS)-9-(3,5-bis-trifluoromethyl-benzoyl)-5-phenyl-3-(2-pyrrolidin-1-yl-ethyl)-1-oxa-3,9-diaza-spiro[5.5]undecan-2-one; hydrochloride] reads 11.5 nM; that for `COc1nc(OC)nc(N2CC(c3ccccc3)C3(CCN(C(=O)c4cc(C(F)(F)F)cc(C(F)(F)F)c4)CC3)OC2=O)n1` (stereo not drawn) [Example 17, (5RS)-9-(3,5-bis-trifluoromethyl-benzoyl)-3-(4,6-dimethoxy-[1,3,5]triazin-2-yl)-5-phenyl-oxa-1-3,9-diaza-spiro[5.5]undecan-2-one], 13.2 nM. Regarding `CN(C)CCCN1CC(c2ccccc2)C2(CCN(C(=O)c3cc(C(F)(F)F)cc(C(F)(F)F)c3)CC2)OC1=O` (stereo not drawn) [Example 25, (5RS)-9-(3,5-bis-trifluoromethyl-benzoyl)-3-(3-dimethylamino-4-yl-propyl)-5-phenyl-1-oxa-3,9-diaza-spiro[5.5]undecan-2-one], the Ki is 3.47 nM. This Ki is about 3.8-fold lower than that of the compound before. Turning to `O=C1OC2(CCN(C(=O)c3cc(C(F)(F)F)cc(C(F)(F)F)c3)CC2)C(c2ccccc2)CN1CCN1CCOCC1` (stereo not drawn) [Example 27, (5RS)-9-(3,5-2is-trifluoromethyl-benzoyl)-3-(2-morpholin-4-yl-ethyl)-5-phenyl-1-oxa-3,9-diaza-spiro[5.5]undecan-2-one hydrochloride], the affinity, expressed as Ki, was 6.31 nM.

The values are drawn from US6599900B2, “1-oxa-3,9-diaza-spiro[5,5]undecan-2-ones” (Syntex (U.S.A.) LLC, priority 2001, dated 2003).
